Assay results taken from US9833454B2, “Difluoromethoxy compound with low bioactivation potential for the reduction of beta-amyloid production” (BRISTOL-MYERS SQUIBB COMPANY, priority 2014, dated 2017).

How the values were obtained:
[1] = tested on: Aβ42; test: Determination of Aβ42 IC50; type: cell-based
Experimental: Aβ42 IC50 was determined as described by Gillman, J. E. Starrett Jr., M. F. Parker, et al., “Discovery and evaluation of BMS-708163, a potent, and orally bioavailable gamma-secretase inhibitor”, ACS Medicinal Chemistry Letters, vol. 1., pp. 120-124, 2010. Mouse brain Aβ42 was determined as described by J. H. Toyn, X-A. Lin, M. W. Thompson et al., “Viable mouse gene ablations that robustly alter bran Abeta levels are are”, Biomed. Central Neuroscience, vol. 11, pp. 143, […].

[2] = biological target: T1, CYP2C8 (Homo sapiens, UniProt P10632); test: Inhibition of recombinant CYP enzymes (rCYP), CYP2C8; type: in vitro ADME; conditions: average of two experiments, read-out: rCYP IC50 2C8
T1 sequence (P10632 1-490): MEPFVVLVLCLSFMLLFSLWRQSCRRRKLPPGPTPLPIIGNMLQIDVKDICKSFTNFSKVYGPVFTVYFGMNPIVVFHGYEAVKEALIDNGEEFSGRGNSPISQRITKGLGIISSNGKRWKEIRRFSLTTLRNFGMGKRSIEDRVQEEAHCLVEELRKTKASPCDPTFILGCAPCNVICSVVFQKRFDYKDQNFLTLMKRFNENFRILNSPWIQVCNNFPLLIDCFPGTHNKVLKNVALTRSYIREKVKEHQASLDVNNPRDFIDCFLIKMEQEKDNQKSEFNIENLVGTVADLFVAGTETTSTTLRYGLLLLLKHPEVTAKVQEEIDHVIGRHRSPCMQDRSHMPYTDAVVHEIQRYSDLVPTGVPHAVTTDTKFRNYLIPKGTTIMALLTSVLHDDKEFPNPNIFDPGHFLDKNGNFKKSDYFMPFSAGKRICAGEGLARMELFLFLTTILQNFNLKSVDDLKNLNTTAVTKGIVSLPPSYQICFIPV

[3] = biological target: CYP2C19 (Homo sapiens, UniProt P33261); test: Inhibition of recombinant CYP enzymes (rCYP), CYP2C19; type: in vitro ADME; conditions: average of two experiments, read-out: rCYP IC50 2C19
[4] = biological target: adenosine 2A receptor (Homo sapiens, UniProt P29274); test: In vitro safety: off-target receptor binding and enzyme assays, A2A; conditions: in vitro safety panel
Experimental: (§1) A range of off-target receptor binding assays and enzyme assays were carried out using conventional methods available in the art.

[5] = biological target: T2, monoamine oxidase A (Homo sapiens, UniProt P21397); test: In vitro safety: off-target receptor binding and enzyme assays, MAO A; type: biochemical; conditions: in vitro safety panel
T2 sequence (P21397 1-527): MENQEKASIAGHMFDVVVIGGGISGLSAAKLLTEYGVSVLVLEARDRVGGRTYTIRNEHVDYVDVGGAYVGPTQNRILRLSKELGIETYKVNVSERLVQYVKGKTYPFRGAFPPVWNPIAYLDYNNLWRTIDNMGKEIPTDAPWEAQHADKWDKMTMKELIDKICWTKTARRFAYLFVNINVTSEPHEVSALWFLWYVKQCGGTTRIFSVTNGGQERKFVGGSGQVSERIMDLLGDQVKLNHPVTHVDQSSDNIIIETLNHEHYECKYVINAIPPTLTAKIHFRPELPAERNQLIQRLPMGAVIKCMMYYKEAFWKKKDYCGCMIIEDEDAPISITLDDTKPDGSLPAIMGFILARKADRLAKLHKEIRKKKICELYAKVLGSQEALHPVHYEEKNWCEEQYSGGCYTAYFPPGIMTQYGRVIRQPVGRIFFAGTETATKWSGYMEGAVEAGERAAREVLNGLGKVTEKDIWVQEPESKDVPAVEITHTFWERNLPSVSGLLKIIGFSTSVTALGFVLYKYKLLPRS
Experimental: as §1

[6] = biological target: 43 receptor and Enzyme panel (all others); test: In vitro safety: 43 receptor and enzyme panel, all others; conditions: targets other than A2A, DAT, D1, MAO A, read-out: 43 receptor and Enzyme IC50s, all others
Experimental: as §1

Sequence of adenosine 2A receptor (P29274 whole entry): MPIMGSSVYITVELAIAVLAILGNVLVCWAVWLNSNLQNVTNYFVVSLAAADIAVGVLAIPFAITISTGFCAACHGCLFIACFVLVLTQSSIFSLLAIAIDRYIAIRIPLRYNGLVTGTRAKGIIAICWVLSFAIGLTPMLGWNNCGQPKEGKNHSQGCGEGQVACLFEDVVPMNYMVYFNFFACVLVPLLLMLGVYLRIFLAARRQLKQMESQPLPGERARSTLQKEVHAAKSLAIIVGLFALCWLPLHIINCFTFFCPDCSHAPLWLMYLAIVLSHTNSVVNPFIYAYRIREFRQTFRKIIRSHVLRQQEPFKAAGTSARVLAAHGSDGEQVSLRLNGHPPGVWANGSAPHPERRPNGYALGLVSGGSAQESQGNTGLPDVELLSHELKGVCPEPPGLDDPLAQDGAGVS
Sequence of CYP2C19 (P33261 whole entry): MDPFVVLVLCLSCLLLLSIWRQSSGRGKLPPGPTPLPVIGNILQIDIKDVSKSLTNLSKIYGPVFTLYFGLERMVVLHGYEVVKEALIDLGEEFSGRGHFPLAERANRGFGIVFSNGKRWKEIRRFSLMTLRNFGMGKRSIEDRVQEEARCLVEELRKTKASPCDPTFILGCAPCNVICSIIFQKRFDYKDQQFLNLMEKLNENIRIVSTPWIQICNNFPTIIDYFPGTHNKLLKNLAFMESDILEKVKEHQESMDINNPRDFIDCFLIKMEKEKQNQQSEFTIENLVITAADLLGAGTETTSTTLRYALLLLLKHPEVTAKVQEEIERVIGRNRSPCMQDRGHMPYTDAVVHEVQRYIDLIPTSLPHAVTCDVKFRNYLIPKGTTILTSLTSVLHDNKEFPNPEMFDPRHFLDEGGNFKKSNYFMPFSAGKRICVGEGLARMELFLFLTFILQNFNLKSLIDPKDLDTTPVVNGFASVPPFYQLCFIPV

IC50 [1]: 1.2 nM
IC50 [2]: 960 nM
IC50 [3]: 960 nM
SMILES: CNc1nc(Nc2ccc(-n3cnc(C)n3)c(OC(F)F)c2)nc2c1C(C)(C)CC2c1ccc(F)cc1 (single isomer, unassigned) [Enantiomer 1, N2-(3-(difluoromethoxy)-4-(3-methyl-1H-1,2,4-triazol-1-yl)phenyl)-7-(4-fluorophenyl)-N4,5,5-trimethyl-6,7-dihydro-5H-cyclopenta[d]pyrimidine-2,4-diamine]
IC50 [4]: 2000 nM
IC50 [5]: 8000 to 10000 nM
IC50 [6]: > 10000 nM
